The values below come from patent EP0002400A1, “Thiazole derivatives, their preparation, intermediates and their use in therapeutics” (SYNTHELABO, priority 1977, dated 1979).

In this test the test system is pointes ponto-géniculo-occipitales (P.G.O.). Nature of the test: Reserpine-induced ponto-geniculo-occipital (PGO) spikes in the curarized cat. Format: in vivo, chat. The conditions noted are these: Felis catus, iv, 0.5 h; dose reducing number of PGO spikes by 50%; cat given réserpine 0,75 mg/kg i.p.; increasing i.v. doses every 30 min, 4H30 after réserpine; read-out: P G O DE 50. From the text: Par ailleurs in a étudié l'action des drogues sur les pointes pontc-géniculo-occipitales lors du syndrome réser- pinique chez le chat curarisé, afin de mettre en évidence les propriétés antidépressives des composés.
Che= le chat, on enregistre une activité spécifique au niveau du pont, du noyau genouillé latéral et du cortex occipital qui fut appelée pointes ponto-géniculo-occipitales (P.G.O.).
Cette activité spontanée, (pointes P.G.O.), apparaissant lors du =ycle veille-sommeil, peut être induite par la réserpiné, agent pharmacologique diminuant le taux des monoamines cérébrales.
Cette activité électroencéphalographique, modulée par des mécanismes neuronaux sous le contrôle de neurotransmetteurs sy=aptiques, constitue donc un test pharmacologique pour l'étude de l'action centrale des drogues.
Toutes les expériences sont réalisées de manière aiguë sur des chats des deux sexes de 2 à 3 kg.
Avant le débtt de la préparation chirurgicale effectuée scis narcose à l'éther, l'animal reçoit une injection in- trapéritonéale de 0,75 mg/kg i.p. de réserpine.
Le chat est intubé pour permettre une ventilation artificielle.
Un anesthésique local (xylocalne à 2%) est injecté au niveau des points de pression et des incisions.
Des canules sont placées au niveau de la veine fémorale, pour l'injection des produits et l'infusion d'un agent curarisant, la gallamine triethiodide (Flaxédil^R), et de l'artère fémorale pour l'enregistrement de la pression artérielle.
Des électrodes monopolaires sont vissées α- niveau cortical et des électrodes bipolaires coaxiales sont placées sté- réotaxiquement au niveau des noyaux genouillés latéraux.
L'animal curarisé et ventilé artificiellement est maintenu à température constante tout au long de l'expérience.
L'électroencéphalogramme, l'électrocardiogramme et la pression artérielle sont enregistrés à l'aide d'un polygraphe : Grass modèle 79 D.
Des doses croissantes (0,1; 0,3; 1; 3; 10 et 30 mg/kg) des produits à étudier sont injectées par voie intraveineuse toutes les 30 minutes, 4H30 après l'administration de la réserpine.
Le nombre des pointes P.G.O. est comptabilisé automatiquement par périodes de 10 minutes et exprimé en pourcentage par périodes de 30 minutes en prenant la valeur obtenue lors des 30 minutes de contrôle comme référence (100%).
La dose efficace réduisant de 50% (DE 50) le nombre des pointes P.G.O. est calculée à l'aide d'une courbe de regression semi-logarithmique.
For the compound `COc1ccccc1OCC1=CSC2=NCCN12` [compound 3], the ED50 came out at 0.4 mg/kg.

For the compound `FC(F)(F)c1ccccc1OCC1=CSC2=NCCN12` [compound 21], the ED50 is 0.2 mg/kg.

In the case of `Cc1ccc(OCC2=CSC3=NCCN23)cc1` [compound 12], the ED50 was 0.8 mg/kg.

As for `Brc1ccccc1OCC1=CSC2=NCCN12` [compound 18], the ED50 was determined as 0.14 mg/kg.

For `Clc1ccccc1OCC1=CSC2=NCCN12` [compound 11], the ED50 came to 0.24 mg/kg.

Take `C1=C(CSc2ccccc2)N2CCN=C2S1` [compound 1, Chlorhydratede phénylthiométhyl-3 dihydro-5,6 imidazo [2,1 - b] thiazole]: the ED50 worked out at 0.4 mg/kg.

Consider `COc1ccc(OCC2=CSC3=NCCN23)cc1` [compound 6], for which the ED50 is 1 mg/kg.

For the compound `C1=C(COc2ccccc2-c2ccccc2)N2CCN=C2S1` [compound 31], the ED50 is 0.24 mg/kg.

Take `Clc1cccc(OCC2=CSC3=NCCN23)c1` [compound 9]: the ED50 turned out to be 1 mg/kg.

Consider `C1=C(COc2ccccc2)N2CCN=C2S1` [compound 5, Chlorhydrate du phénoxyméthyl-3 dihydro-5,6 imidazo [2,1-b] thiazole], for which the ED50 was 1.2 mg/kg.

Turning to `CCOc1ccccc1OCC1=CSC2=NCCN12` [compound 24], the ED50 was 0.5 mg/kg.

For `Cc1ccccc1OCC1=CSC2=NCCN12` [compound 10, Chlorhydratede (méthyl-2 phénoxy-méthyl)-3 dihydro-5,6 imidazo-[2,1-b] thiazole], the ED50 was 0.3 mg/kg.
